Assay results from patent US11872222B2, “Uses” (NeRRe Therapeutics Limited, priority 2020, dated 2024).

Experiments:
[1] = test system: VILI mouse model of mechanical injury to the lungs; assay: VILI mouse model: flow cytometric analyses of lung cell suspensions (leukocyte numbers, ICAM-1 surface expression); assay type: in vivo; conditions: male C57/BL6 mice, oral 250 mg/kg pre-treatment, high tidal volume ventilation, flow cytometry, FIG. 2
Description: Orvepitant was evaluated in a VILI mouse model of mechanical injury to the lungs. Male C57/BL6 mice were pre-treated with oral orvepitant (250 mg/kg) or vehicle control (10 ml/kg, 0.1% tween 80:0.5% hydroxypropyl methylcellulose [HPMC]), approximately 30 minutes before initiation of experimental ventilation. Mice were anesthetized and tracheotomised for ventilation. The left carotid artery was cannulated to monitor blood pressure (BP), infuse heparinised saline (0.4 ml/hr of 10 units/ml of heparin), and measure sequential blood gas analyses. Airway pressure was monitored continuously, while respiratory mechanics including respiratory resistance (Rrs) and elastance (Ers), were measured at predetermined intervals by end-inflation occlusion. Vehicle-treated or orvepitant-treated animals were ventilated with high tidal volume (33-37 ml/kg) for up to 150 minutes or until a mortality surrogate (increase of >25% peak inspiratory pressure) was reached. As a control group, vehicle-treated animals only were ventilated with low tidal volume (8-9 ml/kg) to confirm the impact of injurious ventilation. Following termination, bronchoalveolar lavage fluid (BAL) was collected for analysis and lungs were processed for flow cytometric evaluation of leukocyte numbers and expression of ICAM-1 on alveolar macrophages and epithelial cells. Data were evaluated for normality by Shapiro-Wilk test of residuals and QQ plots. Normally distributed data were evaluated by t-test for end-point analysis, or 2-way ANOVA for time courses. Non-normally distributed data were evaluated by Mann-Whitney U test. N=6-7 animals for each dataset. Flow cytometric analyses. Lung cell suspensions were evaluated for quantification of neutrophils and Ly6C high inflammatory (Ly6CN) monocytes by flow cytometry. […] Activation of alveolar macrophages and type 1 and type 2 epithelial cells was determined by assaying for surface expression of ICAM-1.

[2] = test system: VILI mouse model of mechanical injury to the lungs; assay: VILI mouse model: bronchoalveolar lavage fluid (BAL) markers; assay type: in vivo; conditions: male C57/BL6 mice, oral 250 mg/kg pre-treatment, high tidal volume ventilation; FIG. 3
Description: Orvepitant was evaluated in a VILI mouse model of mechanical injury to the lungs. Male C57/BL6 mice were pre-treated with oral orvepitant (250 mg/kg) or vehicle control (10 ml/kg, 0.1% tween 80:0.5% hydroxypropyl methylcellulose [HPMC]), approximately 30 minutes before initiation of experimental ventilation. Mice were anesthetized and tracheotomised for ventilation. The left carotid artery was cannulated to monitor blood pressure (BP), infuse heparinised saline (0.4 ml/hr of 10 units/ml of heparin), and measure sequential blood gas analyses. Airway pressure was monitored continuously, while respiratory mechanics including respiratory resistance (Rrs) and elastance (Ers), were measured at predetermined intervals by end-inflation occlusion. Vehicle-treated or orvepitant-treated animals were ventilated with high tidal volume (33-37 ml/kg) for up to 150 minutes or until a mortality surrogate (increase of >25% peak inspiratory pressure) was reached. As a control group, vehicle-treated animals only were ventilated with low tidal volume (8-9 ml/kg) to confirm the impact of injurious ventilation. Following termination, bronchoalveolar lavage fluid (BAL) was collected for analysis and lungs were processed for flow cytometric evaluation of leukocyte numbers and expression of ICAM-1 on alveolar macrophages and epithelial cells. Data were evaluated for normality by Shapiro-Wilk test of residuals and QQ plots. Normally distributed data were evaluated by t-test for end-point analysis, or 2-way ANOVA for time courses. Non-normally distributed data were evaluated by Mann-Whitney U test. N=6-7 animals for each dataset. Bronchoalveolar lavage fluid (BAL) markers. BAL total protein concentration was measured as a marker of alveolar-epithelial barrier permeability.

[3] = test system: VILI mouse model of mechanical injury to the lungs; assay: VILI mouse model: physiological variables (peak inspiratory pressure, elastance); assay type: in vivo, mice
Description: Orvepitant was evaluated in a VILI mouse model of mechanical injury to the lungs.
Male C57/BL6 mice were pre-treated with oral orvepitant (250 mg/kg) or vehicle control (10 ml/kg, 0.1% tween 80:0.5% hydroxypropyl methylcellulose [HPMC]), approximately 30 minutes before initiation of experimental ventilation.
Mice were anesthetized and tracheotomised for ventilation. The left carotid artery was cannulated to monitor blood pressure (BP), infuse heparinised saline (0.4 ml/hr of 10 units/ml of heparin), and measure sequential blood gas analyses. Airway pressure was monitored continuously, while respiratory mechanics including respiratory resistance (Rrs) and elastance (Ers), were measured at predetermined intervals by end-inflation occlusion. Vehicle-treated or orvepitant-treated animals were ventilated with high tidal volume (33-37 ml/kg) for up to 150 minutes or until a mortality surrogate (increase of >25% peak inspiratory pressure) was reached. As a control group, vehicle-treated animals only were ventilated with low tidal volume (8-9 ml/kg) to confirm the impact of injurious ventilation. Following termination, bronchoalveolar lavage fluid (BAL) was collected for analysis and lungs were processed for flow cytometric evaluation of leukocyte numbers and expression of ICAM-1 on alveolar macrophages and epithelial cells.
Data were evaluated for normality by Shapiro-Wilk test of residuals and QQ plots. Normally distributed data were evaluated by t-test for end-point analysis, or 2-way ANOVA for time courses. Non-normally distributed data were evaluated by Mann-Whitney U test. N=6-7 animals for each dataset.

Cc1cc(F)ccc1[C@H]1C[C@@H](N2CCN3C(=O)CC[C@H]3C2)CCN1C(=O)N(C)[C@H](C)c1cc(C(F)(F)F)cc(C(F)(F)F)c1 [orvepitant]
Ly6C high inflammatory monocyte numbers within lung tissue ([1]; vs vehicle): significant decrease | Neutrophil numbers within lung tissue ([1]; vs vehicle): significant decrease | Upregulation of ICAM-1 surface expression on alveolar macrophages [1]: significantly attenuated | Upregulation of ICAM-1 surface expression on type 1 epithelial cells [1]: significantly attenuated | Upregulation of ICAM-1 surface expression on type 2 epithelial cells [1]: significantly attenuated | Increase in BAL IL-6 [2]: significantly attenuated | Increase in BAL MCP-1 [CCL-2] [2]: significantly attenuated | Increase in BAL TGF-β [2]: significantly attenuated | Increase in BAL total protein concentration (marker of alveolar-epithelial barrier permeability) [2]: significantly attenuated | Peak inspiratory pressure at the start of ventilation ([3]; male C57/BL6 mice, oral 250 mg/kg approx. 30 min before ventilation, vs vehicle): identical between vehicle and orvepitant pre-treated animals | Course of peak inspiratory pressure change over time ([3]; male C57/BL6 mice, oral 250 mg/kg pre-treatment, high tidal volume (33-37 ml/kg) ventilation up to 150 min, vs vehicle, FIG. 1): significantly different between groups | 'End' peak inspiratory pressure (final value recorded) ([3]; male C57/BL6 mice, oral 250 mg/kg pre-treatment, high tidal volume ventilation, 150 min or mortality surrogate, vs vehicle, FIG. 1): significantly higher in vehicle-treated animals than those receiving orvepitant | Changes in respiratory system elastance over time ([3]; male C57/BL6 mice, oral 250 mg/kg pre-treatment, high tidal volume ventilation, vs vehicle, FIG. 1): differences between groups did not quite achieve statistical significance | Mechanical lung injury induced by mechanical ventilation (overall conclusion) ([3]; mice, oral pretreatment): substantial, significant attenuation
